Assay results reported in patent US20260294874A1, “COMPOSITIONS COMPRISING MODULATORS OF RIBONUCLEOPROTEIN GRANULE FORMATION AND DISSOLUTION AND METHODS OF USE THEREOF” (University of Virginia Patent Foundation, priority 2023, published 2026).
Entries after “also recorded” stand apart in the source; their conditions may differ.

Legend:
[1] = tested on: P-bodies (EDC4 foci) in HEK293T cells; assay: Immunofluorescence phenotypic screen for P-bodies (α-EDC4) in glucose-deprived HEK293T cells; type: cell-based; conditions: glucose-deprived HEK293T cells, 25 μM, 2 h
Method: SuTEx compound treatments. Prior to treatments, cells were washed twice with warm phosphate-buffered saline (PBS) and exchanged with serum-free DMEM (supplemented with 1% L-glutamine) for at least 30 minutes at 37° C. with 5% CO2. Compounds were then added as 1000×DMSO stocks (10 μL for 10 cm dishes and 3 μL for 6-well dishes), plates were mixed gently, and cells were incubated for two hours. All compounds were thoroughly vortexed and sonicated for five minutes prior to addition to ensure complete solvation. For microscopy experiments, cultures were seeded at 150,000 cells in 3 mL of DMEM in 6-well THERMO SCIENTIFIC™ BIOLITE™ brand microwell plates (Catalog No. 12556004; Thermo Fisher Scientific Inc., Waltham, Massachusetts. United States of America). For collection, media was aspirated, and cells were washed once with cold PBS before scraping from plates. Cells were centrifuged at 500×g at 4° C. for 5 minutes and supernatant was removed. Cell pellets were resuspended in cold PBS (1 mL) and centrifuged at 1,400×g at 4° C. for 3 minutes. Supernatant was again removed, and pellets were then snap-frozen in liquid nitrogen and stored at −80° C. until needed.
Immunofluorescence. Immunofluorescence (IF) of HEK293T cells was performed as previously described in Ciancone et al., 2022. HeLa cells were seeded at 9.0×10^4 in a 24-well plate with 12-mm glass coverslips. The next day, the cells were treated with 25 μM SuTEx probe for 2 hours in DMEM medium without FBS. The cells were then treated with 75 μM NaAsO2 for 30 minutes and fixed with 3% paraformaldehyde in PBS for 15 minutes at room temperature (RT) and washed with PBS twice. The fixed cells were permeabilized with PBST (0.1% Triton X-100) for 15 minutes at room temperature and blocked with 5% goat serum in PBST for 30 minutes at RT. The cells were incubated with anti-G3BP1 antibody H-10 (Catalog No. sc-365338 at 1:200 dilution; Santa Cruz Biotechnology, Inc., Dallas, Texas, United States of America) for 2 hours at RT and washed with PBST (0.1% Tween-20) for 5 minutes three times. Next, cells were incubated with goat anti-mouse Alexa 594 antibody (Catalog No. 115-585-003 at 1:800 dilution; Jackson ImmunoResearch, West Grove, Pennsylvania, United States of America) for 30 minutes at RT. The cells were washed twice with PBST, stained with Hoechst 33342 (Catalog No. H3570 at […]; Thermo Fischer Scientific) in PBST for 5 minutes, and washed with PBS twice for 5 minutes. The coverslips were mounted in PROLONG™ Gold AntiFade Mountant (Catalog No. P36930, Thermo Fisher Scientific) and imaged using NIS Elements AR software and a Nikon Eclipse Ti microscope equipped with a ×100 objective and CMOS camera. […] A CellProfiler pipeline was developed to quantify the number of stress granules under each condition. Briefly, cells were recognized as blue^+ (nuclei) red^+ (G3BP1) objects, and the red^+ granules that meet the shape and size threshold were identified and counted. Cells on the border of linages were excluded from the analysis for more accurate quantification.
Data Analysis—Microscopy. All slides were blinded for imaging. Leica SP5X images were analyzed using Fiji (ImageJ). Custom macros were written for analysis and can be obtained upon request. To elaborate, images were split into channels based on the different laser wavelengths measured. Image stacks were then combined using ‘Z-Project’ with an average intensity parameter and a threshold was applied to exclude noise based on the negative control (no EDC4 antibody). The ‘Analyze Particles’ function was used with relevant size and circularity constraints (0.85-1.00) to count the number of foci, with total PBs having a diameter of >150 nm, and large PBs>450 nm. The number of foci was normalized to the number of cells (defined by a DAPI stain count) in each linage, and the number of foci per cell was averaged across technical replicates. Every sample had at least two technical replicates and two independent biological replicates. […]

[2] = Lipophilic efficiency calculation (cLogP from ChemDraw); conditions: from IC50 (AHL-030) or EC50 (HHS-166) and cLogP
Method: Lipophilic efficiency calculations for AHL-030 and HHS-166. Lipophilic efficiency was calculated as previously described in Leeson & Springthorpe, 2007 using IC50 (AHL-030) and EC50 (HHS-166) potency values from experiments and c Log P values from ChemDraw (Version 20.0.0.41 on a Windows PC): […]

[3] = tested on: G3BP1 WT-rescued G3BP KO cells; assay: SG formation in G3BP KO U20S cells rescued with G3BP1 WT; type: cell-based; conditions: 2 h; for inhibition at 25 µM: G3BP1 WT-rescued G3BP KO U20S cells, read-out: reduction in SGs/cell; for effect on SG formation (in words): G3BP1 WT-rescued G3BP KO cells, 25 μM
Method: G3BP KO and rescue studies. U20S G3BP1/2 double knockout (G3BP KO) cell-line was a kind gift from the C. Brangwynne lab (Princeton University, Princeton, New Jersey, United States of America) and generated as previously described in Kedersha et al., 2016. G3BP KO cells were seeded at 9.0×10^4 in a 24-well plate with 12-mm glass coverslips. Next day, the cells were transfected with […] vectors with 1 μg/mL tetracycline and LIPOFECTAMINE™ 3000 brand transfection reagent according to the manufacturer's protocol (Thermo Fisher Scientific). 20 hours post-transfection, the cells were treated with 25 μM SuTEx probes for 2 hours in DMEM medium without FBS. The cells were then treated with 75 μM NaAsO2 for 30 minutes and fixed with 3% paraformaldehyde in PBS for 15 minutes at RT and washed with PBS twice. The same protocols for IF of HeLa cells and quantification of G3BP1-positive SGs described above were followed thereafter.
To determine whether the cell biological effects mediated by HHS-166 were Y40-dependent, we expressed recombinant G3BP1 WT or Y40 mutant in previously established G3BP1/2 double knockout U20S (G3BP KO) cells (Kedersha et al., 2016; Sanders et al., 2020) and evaluated the resulting effects on SG response to [COMPOUND LEFT OUT]. We compared SG response of G3BP KO cells expressing a G3BP1 Y40 covalent binding- and phospho-deficient mutant (Y40F) with a phosphomimetic counterpart (Y40E). G3BP KO cells were previously shown to be deficient in [COMPOUND LEFT OUT]-induced SG formation (Sanders et al., 2020). Expression of G3BP1 WT rescued this deficiency and restored cellular SG response to [COMPOUND LEFT OUT] [1.6 vs 11 SGs/cell in (−)[COMPOUND LEFT OUT] vs (+)[COMPOUND LEFT OUT], respectively; FIGS. 6A and 6B].

SMILES | effect on PBs (in words) [1] | LipE (lipophilic efficiency) [2] | inhibition at 25 µM [3] [%] | effect on SG formation (in words) [3]
COc1ccc(S(=O)(=O)n2cc(CS(C)(=O)=O)nn2)cc1 [AHL-030, 1-((4-Methoxyphenyl)sulfonyl)-4-((methylsulfonyl)methyl)-1H-1,2,3-triazole] | PB-inhibitory; also recorded: modestly inhibiting PBs; also recorded: decreased PBs | 7 | – | –
N#Cc1ccc(S(=O)(=O)n2cc(-c3cccc(Cl)c3)nn2)cc1 [EKT231, 4-((4-(3-Chlorophenyl)-1H-1,2,3-triazol-1-yl)sulfonyl)benzonitrile] | – | – | 9 to 13 | not observed; also recorded: inactive
CC(C)c1cc(C(C)C)c(S(=O)(=O)n2cc(-c3ccc(C(F)(F)F)cc3)nn2)c(C(C)C)c1 [AHL-003] | block both types of RNP granules; also recorded: inhibited | – | – | –
COc1ccc(S(=O)(=O)n2cc(C3CCCCC3)nn2)cc1 [HHS-166, 4-Cyclohexyl-1-((4-methoxyphenyl)sulfonyl)-111-1,2,3-triazole] | – | 3 | 57 | statistically significant decrease in SGs; also recorded: blocked; also recorded: statistically significant decreases in SG formation
